Active and inactive are the calls of the source. The rule behind the calls is not given here.
Experiments:
PC-12 [1] = test: Cytotoxicity in rat PC-12 cells assessed as cell viability measured at 10 to 30 uM for 24 hrs by MTT assay; type: functional, cell-based; conditions: dose 10-30 µM
PC-12 [2] = test: Neuroprotective activity against 6-OHDA-induced cytotoxicity in rat PC-12 cells at 10 to 30 uM for 4 hrs followed by exposure to 6-OHDA measured after 24 hrs by MTT assay; type: functional, cell-based; conditions: dose 10-30 µM, time 28.0 hrs
PC-12 [3] = test: Neuroprotective activity against 6-OHDA-induced cytotoxicity in rat PC-12 cells at 30 uM for 4 hrs followed by exposure to 6-OHDA measured after 24 hrs by MTT assay; type: functional, cell-based; conditions: time 28.0 hrs
PC-12 [4] = test: Cytotoxicity in rat PC-12 cells assessed as cell viability measured at 30 uM for 24 hrs by MTT assay; type: functional, cell-based
PC-12 [5] = test: Neuroprotective activity against 6-OHDA-induced cytotoxicity in rat PC-12 cells for 4 hrs followed by exposure to 6-OHDA measured after 24 hrs by MTT assay; type: functional, cell-based; conditions: dose 0.1-30 µM, time 28.0 hrs
PC-12 [6] = test: Neuroprotective activity against 6-OHDA-induced cytotoxicity in rat PC-12 cells at 0.1 to 30 uM for 4 hrs followed by exposure to 6-OHDA measured after 24 hrs by MTT assay relative to control; type: functional; conditions: dose 0.1-30 µM, time 28 hrs
PC-12 [7] = test: Cytotoxicity in rat PC-12 cells assessed as cell viability incubated at 0.1 to 30 uM for 24 hrs by MTT assay relative to control; type: functional; conditions: dose 0.1-30 µM

SMILES | Activity (PC-12 [1]) | Activity (PC-12 [2]) | also measured
COc1cc(OC)cc(-c2coc3cc(O)c4c(c3c2=O)OC(C)(C)C(O)C4)c1 (stereo unspecified) | inactive | inactive | –
CC1(C)Oc2c(c(O)cc3occ(-c4cccs4)c(=O)c23)CC1O (stereo unspecified) | – | – | Activity (PC-12 [3]): inactive
COc1ccc(-c2coc3cc(O)c4c(c3c2=O)OC(C)(C)CC4)cc1 | Active | – | –
CC1(C)Oc2c(c(O)cc3occ(-c4cccc(C#N)c4)c(=O)c23)CC1O (stereo unspecified) | Active | – | –
CC(C)Oc1ccc(-c2coc3cc4c(c(OC(C)C)c3c2=O)C=CC(C)(C)O4)cc1 | – | – | Activity (PC-12 [4]): Active
COc1ccc(-c2coc3cc(OC)c4c(c3c2=O)OC(C)(C)C(O)C4)cc1 (stereo unspecified) | inactive | inactive | –
COc1ccc(-c2coc3cc(O)c4c(c3c2=O)OC(C)(C)C(O)C4)c(OC)c1 (stereo unspecified) | inactive | inactive | –
CC1(C)Oc2c(c(O)cc3occ(-c4ccccc4)c(=O)c23)CC1O (stereo unspecified) | inactive | Active | Activity (PC-12 [3]): Active; Activity (PC-12 [5]): Dose-Dependent Effect; inhibition (INH) (PC-12 [6]): 49.9%; Activity (PC-12 [7]): 75%
COc1ccc(-c2coc3cc(O)c4c(c3c2=O)OC(C)(C)C(O)C4)cc1OC (stereo unspecified) | inactive | inactive | –
CC1(C)Oc2c(c(O)cc3occ(-c4ccc(OC(F)(F)F)cc4)c(=O)c23)CC1O (stereo unspecified) | Active | – | –
Cc1cc(-c2coc3cc(O)c4c(c3c2=O)OC(C)(C)C(O)C4)ccc1F (stereo unspecified) | Active | inactive | –

From ChEMBL document CHEMBL5352401, “Novel cudraisoflavone J derivatives as potent neuroprotective agents for the treatment of Parkinson's disease via the activation of Nrf2/HO-1 signaling” (Eur J Med Chem, 2022)
